Values of other authors in patent publication US20050032777A1, “Diazacycloalkanes as oxytocin agonists” (priority 2001, published 2005).
Like-named read-outs stand apart in the source and are kept apart here.

Tested on: erectile response
Conditions: male rats

For CC[C@H](C)[C@@H]1NC(=O)[C@H](Cc2ccc(O)cc2)NC(=O)[C@@H](N)CSSC[C@@H](C(=O)N2CCC[C@H]2C(=O)N[C@@H](CC(C)C)C(=O)NCC(N)=O)NC(=O)[C@H](CC(N)=O)NC(=O)[C@H](CCC(N)=O)NC1=O [OT, oxytocin], the erectogenic activity (i.c.v.) is listed as “erectogenic” and the erectogenic activity (iv., doses up to two orders of magnitude greater than i.c.v.) is listed as “erectogenic activity”.
